# Source: publication PMC4866600, “Structural basis for the blockade of MATE multidrug efflux pumps” (Nature Communications, 2015)
# Legend:
# NorM-NG = NorM-NG (Neisseria gonorrhoeae, UniProt Q5F9J8); test: biochemical; format: binding
# Description: (§1) [^3H]-R6G (2.7 Ci mmol^−1, 1.0 mCi ml^−1) was custom-synthesized by Moravek Biochemicals (Brea, California, USA). [^3H]-R6G binding assay was performed by using immobilized protein on Ni-NTA beads[31][42] as follows. Briefly, freshly purified protein (DinF-BH or NorM-NG) was mixed gently with pre-equilibrated Ni-NTA beads at 1 mg ml^−1 in buffers containing 20 mM Tris-HCl pH 8, 50 mM NaCl, 20% (v/v) glycerol, 0.02% (w/v) DDM, 1 mM TCEP (binding buffer) for >1 h at 4 °C. The mixture was centrifuged and the unbound material (supernatant) was discarded.
# (§2) The beads were thoroughly washed, resuspended and aliquoted in the binding buffer. […] The samples were then transferred into micro-columns and centrifuged; the unbound material (flow-through) was discarded. The protein was eluted by using the binding buffer supplemented with 500 mM Imidazole. The radioactivity of the eluate was measured by liquid scintillation. […] All the experiments were performed in duplicate and repeated three times.
# DinF-BH = molecular target: T1, DinF-BH (Halalkalibacterium halodurans (Bacillus halodurans), UniProt Q9KAX3); test: biochemical
# T1 sequence (Q9KAX3 1-464): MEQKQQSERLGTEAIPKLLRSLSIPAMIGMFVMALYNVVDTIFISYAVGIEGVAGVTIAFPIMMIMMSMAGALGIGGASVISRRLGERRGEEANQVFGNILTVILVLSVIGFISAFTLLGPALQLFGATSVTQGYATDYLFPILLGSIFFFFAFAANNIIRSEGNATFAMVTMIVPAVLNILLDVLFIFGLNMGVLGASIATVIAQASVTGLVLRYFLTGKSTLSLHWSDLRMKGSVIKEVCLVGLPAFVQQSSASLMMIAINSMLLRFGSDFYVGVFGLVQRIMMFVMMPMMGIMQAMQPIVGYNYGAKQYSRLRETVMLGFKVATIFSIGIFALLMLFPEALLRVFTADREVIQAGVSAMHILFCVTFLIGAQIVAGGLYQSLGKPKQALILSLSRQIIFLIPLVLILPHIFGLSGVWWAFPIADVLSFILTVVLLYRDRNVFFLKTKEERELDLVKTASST
# Description: as §1, §2
# NorM-NG, sequence (Q5F9J8 entry or part of it): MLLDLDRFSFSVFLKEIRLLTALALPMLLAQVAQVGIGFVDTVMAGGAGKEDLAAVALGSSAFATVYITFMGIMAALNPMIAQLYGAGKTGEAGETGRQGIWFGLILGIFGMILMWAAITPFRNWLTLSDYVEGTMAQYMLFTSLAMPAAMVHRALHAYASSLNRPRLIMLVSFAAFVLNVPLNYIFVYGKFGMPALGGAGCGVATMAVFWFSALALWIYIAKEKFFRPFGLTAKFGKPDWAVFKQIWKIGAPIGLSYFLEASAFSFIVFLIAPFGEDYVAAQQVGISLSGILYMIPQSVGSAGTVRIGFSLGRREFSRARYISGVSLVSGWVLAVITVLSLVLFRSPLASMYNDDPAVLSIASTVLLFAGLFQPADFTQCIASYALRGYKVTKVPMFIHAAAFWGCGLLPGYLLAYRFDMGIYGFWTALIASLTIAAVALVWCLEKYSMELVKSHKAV
SMILES,Ki (NorM-NG) [µM],Ki (DinF-BH) [µM],Kd (NorM-NG) [µM],Kd (DinF-BH) [µM]
CC[n+]1c(-c2ccccc2)c2cc(N)ccc2c2ccc(N)cc21 [ethidium],< 25,< 25,–,–
"CC/N=c1\cc2oc3cc(NCC)c(C)cc3c(-c3ccccc3C(=O)OCC)c-2cc1C [R6G, rhodamine 6G]",< 10,< 10,~5,~5
